Where two headings read alike, the source gives them in different places. Non-standard residues stand in square brackets, D forms with d. Residues, ends and D or L forms follow the SMILES beside them. No end group written: not given here. pS = N[C@@H](COP(=O)(O)O)C(=O)O

One assay has as its system E. coli (ATCC 25922). It is filed as cell-based, Escherichia coli. The protocol:
(§1) The antimicrobial activities of HBc ARD peptides were tested using a number of bacterial strains from ATCC, including Pseudomonas aeruginosa Migula strain (ATCC 27853, ampicillin-resistant), Pseudomonas aeruginosa Migula strain (ATCC 9027, ampicillin-resistant), Klebsiella pneumoniae strain (ATCC 17593), Escherichia coli strain (ATCC 25922), Staphylococcus aureus subsp. strain (ATCC 25923, methicillin-resistant), Staphylococcus aureus subsp. strain (ATCC 29213, methicillin-resistant), Staphylococcus aureus subsp. strain (ATCC 19636, methicillinresistant), and Candida albicans strain (ATCC 10231).
(§2) All peptides were purchased from Yao-Hong Biotechnology Inc. (Taipei, Taiwan). Vendors provided data of peptide characterizations, including HPLC and Mass (data not shown). Antimicrobial activity was determined as described with some modifications as detailed below. Bacteria were grown overnight in Mueller–Hinton broth (Difco) at 37°C, and during the mid-logarithmic phase, bacteria were diluted to 10^6 CFU (colony formation unit)/ml in phosphate buffer (10 mM sodium phosphate and 50 mM sodium chloride, pH 7.2). Peptides were serially diluted in the same buffer. Fifty microliter (µl) of bacteria was mixed with fifty µl of peptides at varying concentrations followed by incubation at 37°C for 3 hours without shaking. At the end of incubation, bacteria were placed on Mueller-Hinton broth agar plates, and allowed growth at 37°C overnight for measurement of minimal bactericidal concentration (MBC). […] All peptides were tested in triplicate.

The subject of assay [1] is K. pneumonia (ATCC 13884). It is filed as cell-based, Klebsiella pneumoniae.
The next assay concerns S. aureus (ATCC 29213). It is filed as cell-based, Staphylococcus aureus. As to the method:
as §1, §2

Another assay deals with S. aureus (ATCC 19636). In kind it is cell-based, Staphylococcus aureus. The protocol:
as §1, §2

The test system of the next assay is S. aureus (ATCC 25923). It is filed as cell-based, Staphylococcus aureus. As to the method: as §1, §2
For assay [2], the system named is P. aeruginosa (ATCC 9027). In kind it is cell-based, Pseudomonas aeruginosa. The protocol: as §1, §2
Assay [3] has as its system P. aeruginosa (ATCC 27853). In kind it is cell-based, Pseudomonas aeruginosa. The protocol: as §1, §2
Assay [4] relates to tested bacteria and fungi. It is filed as cell-based. The following applies: for MBC for bacteria: summary over the tested bacteria of Table 1. As to the method:
as §1, §2

Where [5] appears, read: 3 h at 37°C in 10 mM sodium phosphate, 50 mM NaCl, pH 7.2, 10^6 CFU/ml, triplicate, ND = not detectable.
Where [6] appears, read: 3 h at 37°C in phosphate buffer pH 7.2, triplicate.
Where [7] appears, read: methicillin-resistant strain, 3 h at 37°C in 10 mM sodium phosphate, 50 mM NaCl, pH 7.2, 10^6 CFU/ml, triplicate, ND = not detectable.
Where [8] appears, read: methicillin-resistant strain, 3 h at 37°C in phosphate buffer pH 7.2, triplicate.
The mark [9] stands for this setting: ampicillin-resistant strain, 3 h at 37°C in 10 mM sodium phosphate, 50 mM NaCl, pH 7.2, 10^6 CFU/ml, triplicate, ND = not detectable.
The mark [10] stands for this setting: ampicillin-resistant strain, 3 h at 37°C in phosphate buffer pH 7.2, triplicate.

As to “HBc155p: HBc147-183 phosphorylated on S155 (TVVRRRGRSPRRRTPSPRRRRSQSPRRRRSQSRESQC; phosphorylated S155; UniProt P03147 147-183, looked up, fragment)”, the “Antimicrobial activity, MBC” value came to 8 µM in the assay on E. coli (ATCC 25922) (setting [5]); 37.4 µg/mL in the assay on E. coli (ATCC 25922) (setting [6]); 1 µM in assay [1] (setting [5]); 4.67 µg/mL in assay [1] (setting [6]); 8 µM with S. aureus (ATCC 29213) (setting [7]); 37.4 µg/mL in the assay with S. aureus (ATCC 29213) (setting [8]). For the same compound, the “Antimicrobial activity, MBC” value with S. aureus (ATCC 19636) (setting [7]) is 8 µM; in the assay on S. aureus (ATCC 19636) (setting [8]), 37.4 µg/mL; with S. aureus (ATCC 25923) (setting [7]), 8 µM; with S. aureus (ATCC 25923) (setting [8]) it was 37.4 µg/mL; in assay [2] (setting [9]) it was 8 µM; in assay [2] (setting [10]), 37.4 µg/mL. Besides, the “Antimicrobial activity, MBC” value in assay [3] (setting [9]) came out at 8 µM; in assay [3] (setting [10]), 37.4 µg/mL. In addition, the “MBC for bacteria” value in assay [4] is given as 8 µM.
As for “HBc170p: HBc147-183 phosphorylated on S170 (TVVRRRGRSPRRRTPSPRRRRSQ[pS]PRRRRSQSRESQC; UniProt P03147 147-183, looked up, fragment)”, the “Antimicrobial activity, MBC” value in the assay with E. coli (ATCC 25922) (setting [5]) is roughly 32 µM; in the assay with E. coli (ATCC 25922) (setting [6]), roughly 149.5 µg/mL; in assay [1] (setting [5]) it was 8 µM; in assay [1] (setting [6]), 37.4 µg/mL; in the assay on S. aureus (ATCC 29213) (setting [7]), roughly 32 µM; in the assay with S. aureus (ATCC 29213) (setting [8]), roughly 149.5 µg/mL. For the same compound, the “Antimicrobial activity, MBC” value with S. aureus (ATCC 19636) (setting [7]) was roughly 32 µM; with S. aureus (ATCC 19636) (setting [8]), roughly 149.5 µg/mL; in the assay on S. aureus (ATCC 25923) (setting [7]) it was roughly 32 µM; in the assay with S. aureus (ATCC 25923) (setting [8]) it was roughly 149.5 µg/mL; in assay [2] (setting [9]), roughly 32 µM; in assay [2] (setting [10]), roughly 149.5 µg/mL. Moreover, the “Antimicrobial activity, MBC” value is roughly 32 µM in assay [3] (setting [9]) and roughly 149.5 µg/mL in assay [3] (setting [10]). Besides, the “MBC for bacteria” value in assay [4] was 32 µM.
For “HBc176p: HBc147-183 phosphorylated on S176 (TVVRRRGRSPRRRTPSPRRRRSQSPRRRR[pS]QSRESQC; UniProt P03147 147-183, looked up, fragment)”, the “Antimicrobial activity, MBC” value was found to be 8 µM in the assay with E. coli (ATCC 25922) (setting [5]); 37.4 µg/mL in the assay on E. coli (ATCC 25922) (setting [6]); 4 µM in assay [1] (setting [5]); 18.68 µg/mL in assay [1] (setting [6]); 8 µM with S. aureus (ATCC 29213) (setting [7]); 37.4 µg/mL with S. aureus (ATCC 29213) (setting [8]). The “Antimicrobial activity, MBC” value in the assay with S. aureus (ATCC 19636) (setting [7]) worked out at 8 µM; with S. aureus (ATCC 19636) (setting [8]) it was 37.4 µg/mL; with S. aureus (ATCC 25923) (setting [7]) it was 8 µM; in the assay on S. aureus (ATCC 25923) (setting [8]) it was 37.4 µg/mL; in assay [2] (setting [9]), 8 µM; in assay [2] (setting [10]) it was 37.4 µg/mL. The “Antimicrobial activity, MBC” value in assay [3] (setting [9]) was determined as 8 µM; in assay [3] (setting [10]), 37.4 µg/mL. Moreover, the “MBC for bacteria” value in assay [4] is recorded as 8 µM.
Regarding `CC(C)[C@H](NC(=O)[C@@H](NC(=O)[C@@H](N)[C@@H](C)O)C(C)C)C(=O)N[C@@H](CCCNC(=N)N)C(=O)N[C@@H](CCCNC(=N)N)C(=O)N[C@@H](CCCNC(=N)N)C(=O)NCC(=O)N[C@@H](CCCNC(=N)N)C(=O)N[C@@H](COP(=O)(O)O)C(=O)N1CCC[C@H]1C(=O)N[C@@H](CCCNC(=N)N)C(=O)N[C@@H](CCCNC(=N)N)C(=O)N[C@@H](CCCNC(=N)N)C(=O)N[C@H](C(=O)N1CCC[C@H]1C(=O)N[C@@H](COP(=O)(O)O)C(=O)N1CCC[C@H]1C(=O)N[C@@H](CCCNC(=N)N)C(=O)N[C@@H](CCCNC(=N)N)C(=O)N[C@@H](CCCNC(=N)N)C(=O)N[C@@H](CCCNC(=N)N)C(=O)N[C@@H](CO)C(=O)N[C@@H](CCC(N)=O)C(=O)N[C@@H](COP(=O)(O)O)C(=O)N1CCC[C@H]1C(=O)N[C@@H](CCCNC(=N)N)C(=O)N[C@@H](CCCNC(=N)N)C(=O)N[C@@H](CCCNC(=N)N)C(=O)N[C@@H](CCCNC(=N)N)C(=O)N[C@@H](CO)C(=O)N[C@@H](CCC(N)=O)C(=O)N[C@@H](CO)C(=O)N[C@@H](CCCNC(=N)N)C(=O)N[C@@H](CCC(=O)O)C(=O)N[C@@H](CO)C(=O)N[C@@H](CCC(N)=O)C(=O)N[C@@H](CS)C(=O)O)[C@@H](C)O` [HBc155p162p170p], the “Antimicrobial activity, MBC” value in the assay on E. coli (ATCC 25922) (setting [6]) is greater than 154.5 µg/mL; in the assay on E. coli (ATCC 25922) (ATCC 25922, 3 h, pH 7.2), greater than 32 µM; in assay [1] (setting [6]), greater than 154.5 µg/mL; in assay [1] (ATCC 13884, 3 h, pH 7.2), greater than 32 µM; in the assay on S. aureus (ATCC 29213) (ATCC 29213, 3 h, pH 7.2) it was greater than 32 µM; with S. aureus (ATCC 29213) (setting [8]), greater than 154.5 µg/mL. The “Antimicrobial activity, MBC” value was greater than 32 µM in the assay on S. aureus (ATCC 19636) (ATCC 19636, 3 h, pH 7.2); greater than 154.5 µg/mL in the assay with S. aureus (ATCC 19636) (setting [8]); greater than 32 µM in the assay on S. aureus (ATCC 25923) (ATCC 25923, 3 h, pH 7.2); greater than 154.5 µg/mL with S. aureus (ATCC 25923) (setting [8]); greater than 32 µM in assay [2] (ATCC 9027, 3 h, pH 7.2); greater than 154.5 µg/mL in assay [2] (setting [10]). The “Antimicrobial activity, MBC” value in assay [3] (ATCC 27853, 3 h, pH 7.2) is greater than 32 µM; in assay [3] (setting [10]), greater than 154.5 µg/mL. In addition, the “MBC for bacteria” value in assay [4] is listed as greater than 32 µM.
“HBc164-176: HBc ARD peptide ARD III–IV (RRRRSQSPRRRRS; UniProt P03147 164-176, looked up, fragment)”: the “Activity against all of the tested bacteria and fungi” value in assay [4] (summary of Table 1) is given as “no activity”.
For the compound `CC(C)[C@H](NC(=O)[C@@H](NC(=O)[C@@H](N)[C@@H](C)O)C(C)C)C(=O)N[C@@H](CCCNC(=N)N)C(=O)N[C@@H](CCCNC(=N)N)C(=O)N[C@@H](CCCNC(=N)N)C(=O)NCC(=O)N[C@@H](CCCNC(=N)N)C(=O)N[C@@H](CO)C(=O)N1CCC[C@H]1C(=O)N[C@@H](CCCNC(=N)N)C(=O)N[C@@H](CCCNC(=N)N)C(=O)N[C@@H](CCCNC(=N)N)C(=O)N[C@H](C(=O)N1CCC[C@H]1C(=O)N[C@@H](CO)C(=O)N1CCC[C@H]1C(=O)N[C@@H](CCCNC(=N)N)C(=O)N[C@@H](C)C(=O)N[C@@H](C)C(=O)N[C@@H](CCCNC(=N)N)C(=O)N[C@@H](CO)C(=O)N[C@@H](CCC(N)=O)C(=O)N[C@@H](CO)C(=O)N1CCC[C@H]1C(=O)N[C@@H](CCCNC(=N)N)C(=O)N[C@@H](C)C(=O)N[C@@H](C)C(=O)N[C@@H](CCCNC(=N)N)C(=O)N[C@@H](CO)C(=O)N[C@@H](CCC(N)=O)C(=O)N[C@@H](CO)C(=O)N[C@@H](CCCNC(=N)N)C(=O)N[C@@H](CCC(=O)O)C(=O)N[C@@H](CO)C(=O)N[C@@H](CCC(N)=O)C(=O)N[C@@H](CS)C(=O)O)[C@@H](C)O` [HBc147-183(34AA)] (H-TVVRRRGRSPRRRTPSPRAARSQSPRAARSQSRESQC-OH; N-terminus and C-terminus assumed), the “Antimicrobial activity, MBC” value is greater than 135.94 µg/mL with E. coli (ATCC 25922) (setting [6]); greater than 32 µM in the assay with E. coli (ATCC 25922) (ATCC 25922, 3 h, pH 7.2); 135.94 µg/mL in assay [1] (setting [6]); 32 µM in assay [1] (ATCC 13884, 3 h, pH 7.2); greater than 32 µM with S. aureus (ATCC 29213) (ATCC 29213, 3 h, pH 7.2); greater than 135.94 µg/mL with S. aureus (ATCC 29213) (setting [8]). Moreover, the “Antimicrobial activity, MBC” value in the assay with S. aureus (ATCC 19636) (ATCC 19636, 3 h, pH 7.2) was greater than 32 µM; in the assay with S. aureus (ATCC 19636) (setting [8]) it was greater than 135.94 µg/mL; in the assay with S. aureus (ATCC 25923) (ATCC 25923, 3 h, pH 7.2), greater than 32 µM; with S. aureus (ATCC 25923) (setting [8]) it was greater than 135.94 µg/mL; in assay [2] (ATCC 9027, 3 h, pH 7.2), 32 µM; in assay [2] (setting [10]), 135.94 µg/mL. The “Antimicrobial activity, MBC” value in assay [3] (ATCC 27853, 3 h, pH 7.2) was found to be 32 µM; in assay [3] (setting [10]), 135.94 µg/mL. The “MBC for bacteria” value in assay [4] is “significantly increased”.

(Values after publication PMC3681751, “Identification of a Novel Antimicrobial Peptide from Human Hepatitis B Virus Core Protein Arginine-Rich Domain (ARD)” (PLoS Pathogens, 2013).)
